# Assay results from US20230057984A1, “NORMALIZATION OF CULTURE OF CORNEAL ENDOTHELIAL CELLS” (KYOTO PREFECTURAL PUBLIC UNIVERSITY CORPORATION, priority 2011, published 2023).
# System: Cynomolgus monkey corneal endothelial cells
# Assay: Immunostaining of Na+/K+-ATPase and ZO-1 in monkey corneal endothelial cells (Example 3)
# Type: cell-based
# Conditions: monkey CEC treated with SB431542; control lost its staining
# Protocol: Phosphatase inhibitor cocktail 2 (Sigma-Aldrich) and protease inhibitor cocktail (Nacalai Tesque, Inc., Kyoto city) were added to the aforementioned RIPA buffer. The obtained cell lysate was centrifuged (15,000 rpm, 10 minutes) where the supernatant thereof was collected, and the protein was quantitated using a BCA PROTEIN ASSAY KIT (PIERCE (catalog number: 23227)). Dissolution was performed using 100 μl dissolution buffer (Laemmli sample buffer) including 5 mM 2-mercaptoethanol (Nacalai Tesque (catalog number: 21418-42)). • Immunostaining: after washing cells which had reached confluency with PBS (Nissui, catalog number: 5913), the cells were fixed for 10 minutes with iced ethanol (Nacalai Tesque, catalog number: 14713-95) and acetic acid (WAKO catalog number:017-00256) (95:5).
# Blocking was performed via incubation for 1 hour with 0.1% (vol/vol) polyethylene sorbitan monolaurate (Nacalai Tesque, catalog number: 28353-85) (TBS-T) and Tris buffered saline (10 mM Tris-HCl, pH7.4; 100 mM NaCl) with 10% fetal bovine serum. […]
# Next, reaction was allowed for 1 hour at a room temperature with ALEXA FLUOR 488 (INVITROGEN (catalog number: A21206)) and ALEXA FLUOR 594 (INVITROGEN (catalog number: A21203)), diluted with TBS-T by 1,000 fold. […] After washing, bands were detected using an ECL-ADVAVCE Western Blotting Detection Kit (GE healthcare Japan (catalog number: RPN2135V)). […]
structure (smiles),measurement,value
NC(=O)c1ccc(-c2nc(-c3ccc4c(c3)OCO4)c(-c3ccccn3)[nH]2)cc1 [SB431542],plasma membrane staining of Na+/K+-ATPase and ZO-1 (immunostaining),characteristic plasma membrane staining of Na^+/K^+-ATPase and ZO-1
